Test: study of the stability of aqueous deoxyfructosazine solutions (HPLC)
Assay type: physicochemical
Details: 1 mg/ml solution
Procedure: The study of the stability of aqueous deoxyfructosazine solutions was carried out according to the following protocol:
A deoxyfructosazine solution (1 mg/ml) is prepared using an aqueous 0.05M phosphoric acid solution. Samples of the solution are adjusted to pH 2, 3, 4, 5, 6, 7, 8 and 9 by addition of sodium hydroxide. The solutions thus obtained are stored in glass bottles protected from the light, at 4° C. (control solution), 25° C., 45° C. and 60° C. After 2, 7 and 15 days, the samples are diluted 5-fold with a 20 mM, pH 7 phosphate buffer and the stability is examined by high pressure liquid chromatography (HPLC).

OC[C@@H](O)[C@@H](O)[C@H](O)c1cnc(C[C@H](O)[C@H](O)CO)cn1 [deoxyfructosazine, 2-((1R, 2S, 3R)1,2,3,4-tetrahydroxybutyl)-5-((2′S, 3′R)2′, 3′, 4′-trihydroxy-butylpyrazine)]
% of decomposition product calculated relative to the total area of the peaks, Product A (pH 2, stored 15 days at 45° C.): 1.52%
% of decomposition product calculated relative to the total area of the peaks, Product A (pH 2, stored 15 days at 60° C.): 6.94%
% of decomposition product calculated relative to the total area of the peaks, Product B (pH 2, stored 15 days at 60° C.): 0.02%
% of decomposition product calculated relative to the total area of the peaks, Product A (pH 3, stored 15 days at 45° C.): 0.16%
% of decomposition product calculated relative to the total area of the peaks, Product A (pH 3, stored 15 days at 60° C.): 0.87%
% of decomposition product calculated relative to the total area of the peaks, Product B (pH 3, stored 15 days at 60° C.): 0.03%
% of decomposition product calculated relative to the total area of the peaks, Product A (pH 4, stored 15 days at 60° C.): 0.07%
% of decomposition product calculated relative to the total area of the peaks, Product B (pH 4, stored 15 days at 60° C.): 0.05%
% of decomposition product calculated relative to the total area of the peaks, Product B (pH 5, stored 15 days at 45° C.): 0.03%
% of decomposition product calculated relative to the total area of the peaks, Product B (pH 5, stored 15 days at 60° C.): 0.24%
% of decomposition product calculated relative to the total area of the peaks, Product B (pH 6, stored 15 days at 45° C.): 0.21%
% of decomposition product calculated relative to the total area of the peaks, Product B (pH 6, stored 15 days at 60° C.): 0.71%
% of decomposition product calculated relative to the total area of the peaks, Product B (pH 7, stored 15 days at 45° C.): 0.69%
% of decomposition product calculated relative to the total area of the peaks, Product B (pH 7, stored 15 days at 60° C.): 13.9%
% of decomposition product calculated relative to the total area of the peaks, Product B (pH 8, stored 15 days at 45° C.): 0.95%
% of decomposition product calculated relative to the total area of the peaks, Product B (pH 8, stored 15 days at 60° C.): 37.9%
% of decomposition product calculated relative to the total area of the peaks, Product B (pH 9, stored 15 days at 45° C.): 1.92%
% of decomposition product calculated relative to the total area of the peaks, Product B (pH 9, stored 15 days at 60° C.): 37.7%
